Reference: patent US5807850A, “Therapeutic agent for osteoporosis and triazepine compound” (Japan Tobacco, Inc., priority 1994, dated 1998)
pIC50: −log10 of the molar value. Structures can show the parent of a compound that is named as a salt.

How the values were obtained:
[1] = test system: lumbar spine (L4-5) vertebral body of ovariectomized rats; assay: Suppression of bone mass decrease in ovariectomized rats (osteoporosis model rats); assay type: in vivo, Female SD rats; conditions: 12 weeks, Control 46.1 ± 0.5, Normal control 56.3 ± 1.4
Procedure: Experimental Example 2 suppression of bone mass decrease
The suppressive effect of the compound of the present invention on the bone mass decrease was tested using the ovariectomized rats (osteoporosis model rats).
Female SD rats (13 weeks of age) were subjected to bilateral ovariectomies under anesthesia with Nembutal (50 mg/kg/ml, i.p.; Dai-Nippon Pharmaceutical). At the same time, a sham control group that was subjected to sham surgery without removing ovaries was prepared. The next day of the operation, the rats were grouped in such a manner that the bone mineral density (hereinafter abbreviated as BMD) of each group would reach an average. The BMD was determined by their bone mineral density of lumbar spine (L 4-5) that was measured with a DXA bone densitometer (DCS-600 R, Aloka) under ether anesthesia. The test compounds were suspended in 0.5% hydroxypropylmethylcellulose (hereinafter abbreviated as HPMC, Shin-Etsu Chemical Industries, Ltd.) and they were administered orally at the doses of 0.3, 1.0 and 3.0 mg/kg (5 ml/kg:) for 12 weeks daily from the day following the operation. As a positive control, 17 β-estradiol (Sigma) was dissolved in 5% benzyl alcohol and 95% corn oil, and administered subcutaneously at a dose of 50 μg/kg (1 ml/kg) twice a week for 12 weeks. 0.5% HPMC was administered orally to the normal control and the control for 12 weeks at 5 ml/kg. The next day of the final administration, the rats were exsanguinated and killed under ether anesthesia and the lumbar spine (L4-5) was recovered. The soft tissues and processes were removed from the obtained lumbar spine and BMD of the vertebral body (L4-5) was determined with DCS-600 R (Aloka).
The results are shown by mean±S.E. of the respective groups and the statistical evaluations of the effect of respective groups were made by one-way analysis of variance. The significance was ascribed at less than 5%.

calvaria = assay: Inhibition of bone resorption (45Ca release from calvaria stimulated with hPTH (1-34), method of Raisz); assay type: cell-based, new born ICR mouse; conditions: Mus musculus, 72 h; 45Ca release, 50 nM hPTH (1-34), 3 days incubation; test concentrations 0.04, 0.2 and 1 μM; mean of 4 pairs; read-out: IC50 (inhibition of bone resorption)
Source text: The determination of the inhibitory action on the bone resorption was basically in accordance with the method of Raisz [J. Clin. Invest. vol.
A new born ICR mouse (one or two days old) was intraperitoneally administered with 1.5μ Ci ^45 Ca (isotope of calcium as CaCl2 solution) and calvaria was aseptically removed the next day. The calvaria was split into two along the central suture line, and one of them was used as a control and the other was used as a test compound. The calvaria was preincubated at 37° C. for 2 days in BGJb medium [0.5 ml, Fitton-Jackson modification, GIBCO Laboratories, USA, containing bovine serum albumin 1 mg/ml] added with a test compound to the concentrations of 0.04 μM, 0.2 μM and 1 μM and then in the above-mentioned medium containing 50 nM hPTH (1-34) for further 3 days. After the incubation, the ^45 Ca radioactivity in the medium and the bone was determined, and the proportion (%) of ^45 Ca released from the bone into the medium was calculated by the following formula.
Using the bone obtained from the same mouse and treated in the same manner without adding a test compound, as a control, the proportion (%) relative to the control group was determined according to the following formula.

[2] = 0.3 mg/kg p.o., daily, n=9, mean ± S.E.
[3] = 1 mg/kg p.o., daily, n=8, mean ± S.E., *p < 0.05
[4] = 3 mg/kg p.o., daily, n=9, mean ± S.E., **p < 0.01

| Compound | pIC50 (calvaria) | also measured |
| --- | --- | --- |
| C[C@]12CC[C@@H]3c4ccc(O)cc4CC[C@H]3[C@@H]1CC[C@@H]2O [17 β-estradiol, reference compound] | – | BMD of body of vertebra ([1]; positive control, 0.05 mg/kg s.c., twice a week, n=8, mean ± S.E.): 53.5 ± 0.7 mg/cm^2 |
| Cc1nnc2n1-c1ccccc1C(c1ccc(Cl)cc1)=NN2Cc1cccnc1 [Example 54, 6-(4-Chlorophenyl)-1-methyl-4-(pyridin-3-ylmethyl)-4H-2,3,4,5,10b-pentaazabenz[e]azulene] | 6.27 | BMD of body of vertebra [1, 2]: 46.2 ± 0.4 mg/cm^2; BMD of body of vertebra [1, 3]: 47.3 ± 0.6 mg/cm^2; BMD of body of vertebra [1, 4]: 51.6 ± 0.4 mg/cm^2 |
| Cc1ccc2c(c1)-n1c(C)nnc1N(Cc1ccncc1)N=C2c1ccccc1 [Example 131, 1,9-Dimethyl-6-phenyl-4-(pyridin-4-ylmethyl)-4H-2,3,4,5,10b-pentaazabenz[e]azulene] | 6.00 | BMD of body of vertebra [1, 2]: 46.5 ± 0.8 mg/cm^2; BMD of body of vertebra [1, 3]: 48.5 ± 0.5 mg/cm^2; BMD of body of vertebra [1, 4]: 51.3 ± 0.9 mg/cm^2 |
| CCc1cc2c(s1)-n1c(C)nnc1N(Cc1cccnc1)N=C2c1ccc(Cl)cc1 [Example 141, 4-(4-Chlorophenyl)-2-ethyl-9-methyl-6-(pyridin-3-ylmethyl)-6H-5,6,7,8,9a-pentaazathien[2,3-e]azulene] | 6.17 | – |
| CCc1cc2c(s1)-n1c(C)nnc1N(Cc1ccncc1)N=C2c1ccc(Cl)cc1 [Example 142, 4-(4-Chlorophenyl)-2-ethyl-9-methyl-6-(pyridin-4-ylmethyl)-6H-5,6,7,8,9a-pentaazathien[2,3-e]azulene] | 6.35 | – |
| Cc1cc2c(s1)-n1c(C)nnc1N(Cc1cccnc1)N=C2c1ccccc1 [Example 143, 2,9-Dimethyl-4-phenyl-6-(pyridin-3-ylmethyl)-6H-5,6,7,8,9a-pentaazathien[2,3-e]azulene] | 6.47 | – |
| Cc1cc2c(s1)-n1c(C)nnc1N(Cc1ccncc1)N=C2c1ccccc1 [Example 144, 2,9-Dimethyl-4-phenyl-6-(pyridin-4-ylmethyl)-6H-5,6,7,8,9a-pentaazathien[2,3-e]azulene] | 6.57 | – |
| Cc1sc2c(c1C)C(c1ccccc1)=NN(Cc1cccnc1)c1nnc(C)n1-2 [Example 145, 2,3,9-Trimethyl-4-phenyl-6-(pyridin-3-ylmethyl)-6H-5,6,7,8,9a-pentaazathien[2,3-e]azulene] | 6.92 | – |
| Cc1sc2c(c1C)C(c1ccccc1)=NN(Cc1ccncc1)c1nnc(C)n1-2 [Example 146, 2,3,9-Trimethyl-4-phenyl-6-(pyridin-4-ylmethyl)-6H-5,6,7,8,9a-pentaazathien[2,3-e]azulene] | 7.00 | – |
| CCc1cc2c(s1)-n1c(C)nnc1N(Cc1cccnc1)N=C2c1ccccc1 [Example 147, 2-Ethyl-9-methyl-4-phenyl-6-(pyridin-3-ylmethyl)-6H-5,6,7,8,9a-pentaazathien[2,3-e]azulene] | 6.09 | – |
| CCc1cc2c(s1)-n1c(C)nnc1N(Cc1ccncc1)N=C2c1ccccc1 [Example 148, 2-Ethyl-9-methyl-4-phenyl-6-(pyridin-4-ylmethyl)-6H-5,6,7,8,9a-pentaazathien[2,3-e]azulene] | 6.17 | – |
| COc1ccc(C2=NN(Cc3cccnc3)c3nnc(C)n3-c3sc(C)c(C)c32)cc1 [Example 149, 4-(4-Methoxyphenyl)-2,3,9-trimethyl-6-(pyridin-3-ylmethyl)-6H-5,6,7,8,9a-pentaazathien[2,3-e]azulene] | 6.74 | – |
| COc1ccc(C2=NN(Cc3ccncc3)c3nnc(C)n3-c3sc(C)c(C)c32)cc1 [Example 150, 4-(4-Methoxyphenyl)-2,3,9-trimethyl-6-(pyridin-4-ylmethyl)-6H-5,6,7,8,9a-pentaazathien[2,3-e]azulene] | 7.54 | – |
| Cc1nnc2n1-c1ccccc1C(c1ccc(Cl)cc1)=NN2Cc1ccc(O)cc1 [Example 184, 6-(4-Chlorophenyl)-4-(4-hydroxybenzyl)-1-methyl-4H-2,3,4,5,10b-pentaazabenz[e]azulene] | 6.25 | – |
| CCOc1ccc(CN2N=C(c3ccc(Cl)cc3)c3ccccc3-n3c(C)nnc32)cc1 [Example 186, 6-(4-Chlorophenyl)-4-(4-ethoxybenzyl)-1-methyl-4H-2,3,4,5,10b-pentaazabenz[e]azulene] | 6.10 | – |
| CC(=O)Nc1ccc(CN2N=C(c3ccc(Cl)cc3)c3ccccc3-n3c(C)nnc32)cc1 [Example 189, 4-(4-Acetylaminobenzyl)-6-(4-chlorophenyl)-1-methyl-4H-2,3,4,5,10b-pentaazabenz[e]azulene] | 6.59 | – |
| Cc1nnc2n1-c1ccccc1C(c1ccc(Cl)cc1)=NN2Cc1ccc(N(C)C)cc1 [Example 191, 6-(4-Chlorophenyl)-4-(4-dimethylaminobenzyl)-1-methyl-4H-2,3,4,5,10b-pentaazabenz[e]azulene hydrochloride] | 6.13 | – |
